How the values were obtained:
Test in all cases: relative viability (nuclei count vs DMSO), 5 days (fraction); higher = more cells survive
[1] = system: NCI-H2023
Method in brief: (§1)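 Lung cancer cell lines were pin-tool dosed in 1536-well plates on the day after seeding, with either a lone drug or a fixed anchor-drug dose plus five library-drug doses (not always all listed) in √10 steps. Nuclei were counted on 4× images after 5 days. Relative viability is the ratio of treated-well to vehicle-well nuclei counts, with each value a median of duplicate plates.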

[2] = system: NCI-H2405
Method in brief: as §1

[3] = system: NCI-H2170
Method in brief: as §1

[4] = system: H3255
Method in brief: as §1

[5] = system: 201T
Method in brief: as §1

[6] = system: UMC-11
Method in brief: as §1

[7] = system: PC-14
Method in brief: as §1

[8] = system: COR-L23
Method in brief: as §1

[9] = system: NCI-H3122
Method in brief: as §1

[10] = system: NCI-H1650
Method in brief: as §1

[11] = system: NCI-H2347
Method in brief: as §1

[12] = system: NCI-H520
Method in brief: as §1

[13] = system: NCI-H647
Method in brief: as §1

[14] = system: HCC-15
Method in brief: as §1

[15] = system: NCI-H322M
Method in brief: as §1

[16] = system: SW 900
Method in brief: as §1

[17] = system: NCI-H441
Method in brief: as §1

[18] = system: EPLC-272H
Method in brief: as §1

[19] = system: NCI-H1734
Method in brief: as §1

[20] = system: NCI-H1793
Method in brief: as §1

[21] = system: LOU-NH91
Method in brief: as §1

O=c1cc(-c2cccc3c2Sc2ccccc2S3)oc(N2CCOCC2)c1 + O=C(c1cc(Cc2n[nH]c(=O)c3ccccc23)ccc1F)N1CCN(C(=O)C2CC2)CC1 [Olaparib] (partner 8 µM)
relative viability ([1]; first compound 0.08 µM): 0.445 | relative viability ([1]; first compound 0.253 µM): 0.513 | relative viability ([1]; first compound 0.8 µM): 0.435 | relative viability ([1]; first compound 2.53 µM): 0.345 | relative viability ([1]; first compound 8 µM): 0.348 | relative viability ([2]; first compound 0.08 µM): 0.861 | relative viability ([2]; first compound 0.253 µM): 1.04 | relative viability ([2]; first compound 0.8 µM): 0.791 | relative viability ([2]; first compound 2.53 µM): 0.8 | relative viability ([2]; first compound 8 µM): 0.936 | relative viability ([3]; first compound 0.08 µM): 0.585 | relative viability ([3]; first compound 0.253 µM): 0.699 | relative viability ([3]; first compound 0.8 µM): 0.689 | relative viability ([3]; first compound 2.53 µM): 0.641 | relative viability ([3]; first compound 8 µM): 0.617 | relative viability ([4]; first compound 0.08 µM): 0.592 | relative viability ([4]; first compound 0.253 µM): 0.586 | relative viability ([4]; first compound 0.8 µM): 0.571 | relative viability ([4]; first compound 2.53 µM): 0.525 | relative viability ([4]; first compound 8 µM): 0.594 | relative viability ([5]; first compound 0.08 µM): 0.688 | relative viability ([5]; first compound 0.253 µM): 0.909 | relative viability ([5]; first compound 0.8 µM): 0.861 | relative viability ([5]; first compound 2.53 µM): 0.84 | relative viability ([5]; first compound 8 µM): 0.703 | relative viability ([6]; first compound 0.08 µM): 0.365 | relative viability ([6]; first compound 0.253 µM): 0.74 | relative viability ([6]; first compound 0.8 µM): 0.325 | relative viability ([6]; first compound 2.53 µM): 0.344 | relative viability ([6]; first compound 8 µM): 0.42 | relative viability ([7]; first compound 0.08 µM): 0.232 | relative viability ([7]; first compound 0.253 µM): 0.214 | relative viability ([7]; first compound 0.8 µM): 0.237 | relative viability ([7]; first compound 2.53 µM): 0.169 | relative viability ([7]; first compound 8 µM): 0.165 | relative viability ([8]; first compound 0.08 µM): 0.35 | relative viability ([8]; first compound 0.253 µM): 0.395 | relative viability ([8]; first compound 0.8 µM): 0.351 | relative viability ([8]; first compound 2.53 µM): 0.362 | relative viability ([8]; first compound 8 µM): 0.351 | relative viability ([9]; first compound 0.08 µM): 0.658 | relative viability ([9]; first compound 0.253 µM): 0.745 | relative viability ([9]; first compound 0.8 µM): 0.584 | relative viability ([9]; first compound 2.53 µM): 0.604 | relative viability ([9]; first compound 8 µM): 0.63 | relative viability ([10]; first compound 0.08 µM): 0.702 | relative viability ([10]; first compound 0.253 µM): 0.8 | relative viability ([10]; first compound 0.8 µM): 0.53 | relative viability ([10]; first compound 2.53 µM): 0.782 | relative viability ([10]; first compound 8 µM): 0.734 | relative viability ([11]; first compound 0.08 µM): 0.53 | relative viability ([11]; first compound 0.253 µM): 0.561 | relative viability ([11]; first compound 0.8 µM): 0.591 | relative viability ([11]; first compound 2.53 µM): 0.585 | relative viability ([11]; first compound 8 µM): 0.638 | relative viability ([12]; first compound 0.08 µM): 0.391 | relative viability ([12]; first compound 0.253 µM): 0.321 | relative viability ([12]; first compound 0.8 µM): 0.439 | relative viability ([12]; first compound 2.53 µM): 0.322 | relative viability ([12]; first compound 8 µM): 0.339 | relative viability ([13]; first compound 0.08 µM): 0.642 | relative viability ([13]; first compound 0.253 µM): 0.851 | relative viability ([13]; first compound 0.8 µM): 0.596 | relative viability ([13]; first compound 2.53 µM): 0.452 | relative viability ([13]; first compound 8 µM): 0.272 | relative viability ([14]; first compound 0.08 µM): 0.756 | relative viability ([14]; first compound 0.253 µM): 0.772 | relative viability ([14]; first compound 0.8 µM): 0.707 | relative viability ([14]; first compound 2.53 µM): 0.654 | relative viability ([14]; first compound 8 µM): 0.485 | relative viability ([15]; first compound 0.08 µM): 0.523 | relative viability ([15]; first compound 0.253 µM): 0.751 | relative viability ([15]; first compound 0.8 µM): 0.746 | relative viability ([15]; first compound 2.53 µM): 0.811 | relative viability ([15]; first compound 8 µM): 0.729 | relative viability ([16]; first compound 0.253 µM): 0.999 | relative viability ([16]; first compound 0.8 µM): 0.824 | relative viability ([16]; first compound 2.53 µM): 0.702 | relative viability ([16]; first compound 8 µM): 0.773 | relative viability ([17]; first compound 0.08 µM): 0.603 | relative viability ([17]; first compound 0.253 µM): 0.708 | relative viability ([17]; first compound 0.8 µM): 0.518 | relative viability ([17]; first compound 2.53 µM): 0.461 | relative viability ([17]; first compound 8 µM): 0.432 | relative viability ([18]; first compound 0.08 µM): 0.986 | relative viability ([18]; first compound 0.253 µM): 0.896 | relative viability ([18]; first compound 0.8 µM): 0.998 | relative viability ([18]; first compound 2.53 µM): 0.774 | relative viability ([18]; first compound 8 µM): 0.483 | relative viability ([19]; first compound 0.08 µM): 0.628 | relative viability ([19]; first compound 0.253 µM): 0.659 | relative viability ([19]; first compound 0.8 µM): 0.713 | relative viability ([19]; first compound 8 µM): 0.647 | relative viability ([20]; first compound 0.08 µM): 0.815 | relative viability ([20]; first compound 0.253 µM): 1.08 | relative viability ([20]; first compound 0.8 µM): 0.899 | relative viability ([20]; first compound 2.53 µM): 0.721 | relative viability ([20]; first compound 8 µM): 0.63 | relative viability ([21]; first compound 0.08 µM): 0.875 | relative viability ([21]; first compound 0.253 µM): 0.945 | relative viability ([21]; first compound 0.8 µM): 0.866 | relative viability ([21]; first compound 2.53 µM): 0.863 | relative viability ([21]; first compound 8 µM): 0.917

COc1nc(C)cnc1NS(=O)(=O)c1cccnc1-c1ccc(-c2nnco2)cc1 [Zibotentan] + CC(=O)Nc1cccc(-n2c(=O)n(C3CC3)c(=O)c3c(Nc4ccc(I)cc4F)n(C)c(=O)c(C)c32)c1 [Trametinib] (partner 0.02 µM)
relative viability ([1]; first compound 0.08 µM): 0.631 | relative viability ([1]; first compound 0.8 µM): 0.614 | relative viability ([1]; first compound 2.53 µM): 0.558 | relative viability ([2]; first compound 0.08 µM): 0.67 | relative viability ([2]; first compound 0.253 µM): 0.599 | relative viability ([2]; first compound 0.8 µM): 0.648 | relative viability ([2]; first compound 2.53 µM): 0.657 | relative viability ([3]; first compound 0.08 µM): 0.966 | relative viability ([3]; first compound 0.253 µM): 0.897 | relative viability ([3]; first compound 0.8 µM): 0.903 | relative viability ([3]; first compound 2.53 µM): 0.908 | relative viability ([4]; first compound 0.08 µM): 0.659 | relative viability ([4]; first compound 0.253 µM): 0.607 | relative viability ([4]; first compound 0.8 µM): 0.667 | relative viability ([4]; first compound 2.53 µM): 0.626 | relative viability ([5]; first compound 0.08 µM): 0.714 | relative viability ([5]; first compound 0.253 µM): 0.714 | relative viability ([5]; first compound 0.8 µM): 0.734 | relative viability ([5]; first compound 2.53 µM): 0.746 | relative viability ([6]; first compound 0.08 µM): 0.617 | relative viability ([6]; first compound 0.253 µM): 0.665 | relative viability ([6]; first compound 0.8 µM): 0.741 | relative viability ([6]; first compound 2.53 µM): 0.779 | relative viability ([7]; first compound 0.08 µM): 0.833 | relative viability ([7]; first compound 0.253 µM): 0.752 | relative viability ([7]; first compound 0.8 µM): 0.733 | relative viability ([7]; first compound 2.53 µM): 0.735 | relative viability ([8]; first compound 0.08 µM): 0.573 | relative viability ([8]; first compound 0.253 µM): 0.531 | relative viability ([8]; first compound 0.8 µM): 0.831 | relative viability ([8]; first compound 2.53 µM): 0.555 | relative viability ([9]; first compound 0.08 µM): 0.234 | relative viability ([9]; first compound 0.253 µM): 0.211 | relative viability ([9]; first compound 0.8 µM): 0.218 | relative viability ([9]; first compound 2.53 µM): 0.219 | relative viability ([10]; first compound 0.08 µM): 0.533 | relative viability ([10]; first compound 0.8 µM): 0.563 | relative viability ([10]; first compound 2.53 µM): 0.557 | relative viability ([11]; first compound 0.08 µM): 0.252 | relative viability ([11]; first compound 0.253 µM): 0.272 | relative viability ([11]; first compound 0.8 µM): 0.339 | relative viability ([11]; first compound 2.53 µM): 0.287 | relative viability ([12]; first compound 0.08 µM): 0.803 | relative viability ([12]; first compound 0.253 µM): 0.704 | relative viability ([12]; first compound 0.8 µM): 0.631 | relative viability ([12]; first compound 2.53 µM): 0.79 | relative viability ([13]; first compound 0.08 µM): 0.452 | relative viability ([13]; first compound 0.253 µM): 0.42 | relative viability ([13]; first compound 0.8 µM): 0.431 | relative viability ([13]; first compound 2.53 µM): 0.532 | relative viability ([14]; first compound 0.08 µM): 0.397 | relative viability ([14]; first compound 0.253 µM): 0.412 | relative viability ([14]; first compound 0.8 µM): 0.414 | relative viability ([14]; first compound 2.53 µM): 0.319 | relative viability ([15]; first compound 0.08 µM): 0.501 | relative viability ([15]; first compound 0.253 µM): 0.5 | relative viability ([15]; first compound 0.8 µM): 0.519 | relative viability ([15]; first compound 2.53 µM): 0.561 | relative viability ([16]; first compound 0.08 µM): 0.893 | relative viability ([16]; first compound 0.253 µM): 0.817 | relative viability ([16]; first compound 0.8 µM): 0.846 | relative viability ([16]; first compound 2.53 µM): 0.751 | relative viability ([17]; first compound 0.08 µM): 0.454 | relative viability ([17]; first compound 0.253 µM): 0.408 | relative viability ([17]; first compound 0.8 µM): 0.544 | relative viability ([17]; first compound 2.53 µM): 0.471 | relative viability ([18]; first compound 0.08 µM): 0.287 | relative viability ([18]; first compound 0.253 µM): 0.234 | relative viability ([18]; first compound 0.8 µM): 0.31 | relative viability ([18]; first compound 2.53 µM): 0.312 | relative viability ([19]; first compound 0.08 µM): 0.721 | relative viability ([19]; first compound 0.253 µM): 0.705 | relative viability ([19]; first compound 0.8 µM): 0.647 | relative viability ([19]; first compound 2.53 µM): 0.733 | relative viability ([20]; first compound 0.08 µM): 0.42 | relative viability ([20]; first compound 0.253 µM): 0.477 | relative viability ([20]; first compound 0.8 µM): 0.424 | relative viability ([20]; first compound 2.53 µM): 0.47 | relative viability ([21]; first compound 0.08 µM): 0.777 | relative viability ([21]; first compound 0.253 µM): 0.814 | relative viability ([21]; first compound 0.8 µM): 0.817 | relative viability ([21]; first compound 2.53 µM): 0.816

— the supplement of paper PMC10307832
